The subject of series [1] is HCT116, MCF-7, A549, LNCaP, DU145 and PC-3 cancer cells. In words: Flow cytometry, cell cycle kinetics of cancer cells. The class given is cell-based, human. As to conditions: 15 mM in 0.1% DMSO. As to the method:
(§1) Flow cytometry experiments were performed to show the effects of Compound 19, and anticancer drugs Adriamycin or Camptothecin treatment on the cell cycle kinetics of various human cells (FIGS. 8A-8I and 9A-9I), MCF-7 breast cancer cells (FIGS. 5A-5F), A549 lung cancer cells (FIGS. 7A-7I), LNCaP (FIGS. 10A-10I), DU145 (FIGS. 11A-11I) and PC-3 (FIGS. 12A-12I) prostate cancer cells, as well as cultured normal human fibroblasts (FIGS. 6A-6F). The compound or drugs were applied at a concentration of 15 mM in 0.1% DMSO as the vehicle, and cells incubated for the time point indicated in hours (hr). The control samples were treated with vehicle without compound or drug. Red histograms represent cells in the G1/G0 phase (histogram to the left) and cells in the G2/M phases (histogram to the right). The interval between the G1/G) and G2/M histograms is the S-phase of the cell cycle. The subG1/GO histograms (cyan colored) represent cells undergoing apoptosis (programmed cell death).
For orientation: Flow cytometry measures light scatter and fluorescence of single cells or particles in a stream.

The test system of series [2] is cultured normal human fibroblasts. Nature of the series: Flow cytometry, cell cycle kinetics of cultured normal human fibroblasts. The format is cell-based. To be noted: 15 mM in 0.1% DMSO; for selectivity between cancer cells and normal (fibroblast) cells: flow cytometry cell cycle kinetics. The method, then:
as §1

Series [3] has as its system HCT116 colon cancer cells. Nature of the series: In vitro antiproliferative activity, HCT116 colon cancer cells. The class given is cell-based. To be noted: Homo sapiens, HCT-116, Table 1. As to the method: (§2) Substituted β-carboline compounds 4 to 38 were tested for antiproliferative activity against HCT116 colon cancer cells and HPAC, Mia-PaCa2 and Panc-1 pancreatic cancer cell lines. Table 1 lists the IC50 values for the substituted β-carbolines.

For series [4], the system named is HPAC pancreatic cancer cell line. In words: In vitro antiproliferative activity, HPAC pancreatic cancer cell line. The class given is cell-based. As to conditions: Homo sapiens. As to the method:
as §2
(§3) Substituted β-carbolines and analog compounds 39 to 57 were tested for antiproliferative activity against HPAC, Mia-PaCa2 and Panc-1 pancreatic cancer cell lines and MCF-7 and MDA-MB-468 breast cancer cell lines. Table 2 lists the IC50 values for the substituted β-carbolines and analogs thereof.

Series [5] deals with Mia-PaCa2 pancreatic cancer cell line. In words: In vitro antiproliferative activity, Mia-PaCa2 pancreatic cancer cell line. The format is cell-based. To be noted: Homo sapiens. The method, then: as §2, §3
In series [6] the test system is Panc-1 pancreatic cancer cell line. Nature of the series: In vitro antiproliferative activity, Panc-1 pancreatic cancer cell line. The class given is cell-based, human. As to conditions: Homo sapiens. The method, then: as §3
For series [7], the system named is MDA-MB-468 breast cancer xenografts. In words: Antitumor activity in nude mice bearing MDA-MB-468 breast cancer xenografts. The class given is in vivo. As to conditions: 40 mg/kg i.p., after 18 days. The method, then: FIGS. 2A-2B illustrate antitumor activity on tumor mass (FIG. 2A) and on body weight (FIG. 2B) of compound 19 treatment in nude mice bearing human MDA-MB-468 breast cancer xenografts.
(§4) Nude mice bearing MDA-MB-468 breast cancer (FIGS. 2A-2B) and Panc-1 pancreatic cancer (FIGS. 3A-3B) xenografts were administered 40 mg/kg i.p. of compound 19 and tumor mass and body weights were measured daily for 18 days compared to a PEG-ethanol-saline control.

The subject of series [8] is Panc-1 pancreatic cancer xenografts. Nature of the series: Antitumor activity in nude mice bearing Panc-1 pancreatic cancer xenografts. The class given is in vivo. As to conditions: 40 mg/kg i.p., after 18 days. As to the method: FIGS. 3A-3B illustrate antitumor activity on tumor mass (FIG. 3A) and on body weight (FIG. 3B) of compound 19 treatment in nude mice bearing Panc-1 human pancreatic cancer xenografts.
as §4

In series [9] the test system is DU145 prostate cancer xenografts. Nature of the series: Antitumor activity in nude mice bearing DU145 prostate cancer xenografts. The class given is in vivo. The method, then: FIGS. 4A-4B illustrate antitumor activity on tumor growth (FIG. 4A) and on body weight (FIG. 4B) of compound 19 treatment in nude mice bearing human DUI145 prostate cancer xenografts.
Nude mice bearing DU145 prostate cancer xenografts were administered i.p. 10 mg/kg, 20 mg/kg or control of compound 19 and tumor growth (FIG. 4A) and body weight (FIG. 4B) was monitored over 25 days. […]

The next series has as its system HCT116 P53 −/−. In words: In vitro antiproliferative activity, HCT116 P53 −/− cells. The class given is cell-based. As to conditions: Homo sapiens, HCT-116, Table 1. As to the method: as §2
Series [10] has as its system MCF-7 breast cancer cell line. In words: In vitro antiproliferative activity, MCF-7 breast cancer cell line. The format is cell-based, human. To be noted: Homo sapiens, MCF7, Table 2. The method, then:
as §3

Series [11] concerns MDA-MB-468 breast cancer cell line. In words: In vitro antiproliferative activity, MDA-MB-468 breast cancer cell line. As to conditions: Homo sapiens, Table 2. The class given is cell-based, human. The method, then: as §3

pIC50: −log10 of the molar value.

The pIC50 is the negative decadic logarithm of the IC50, by convention in mol/L.

As for `CC[C@@]1(O)C(=O)OCc2c1cc1n(c2=O)Cc2cc3ccccc3nc2-1` [Camptothecin], the “cell cycle arrest mechanism in cancer cells” value (shortened to “cell cycle arrest mechanism”) in [1] is “primarily G1 phase arrest”. For the same compound, the “selectivity between cancer cells and normal (fibroblast) cells” value in [2] is “did not show selectivity”.
Take `COc1ccc2[nH]c3c(-c4cccc5ccccc45)nccc3c2c1` [Compound 19, 6-Methoxy-1-naphthalen-1-yl-9H-β-carboline]: the pIC50 is 6.89 in series [3]; 6.54 in series [4] (Table 1); 6.70 in [5] (MIA PaCa-2, Table 1); 6.54 in [6] (Table 1). Further, the body weight result is “nor had body weight decreased” in series [7]; “nor had body weight decreased” in [8]; “remained fairly constant” in [9] (10 mg/kg and 20 mg/kg i.p., over 25 days). For the same compound, the tumor mass result in series [7] (vs PEG-ethanol-saline control) and in series [8] (vs PEG-ethanol-saline control) was “had not increased” in each case. For the same compound, the “percent of tumor growth” value in [9] (10 mg/kg i.p., at about day 7) is “less than control”. In addition, the “rate of tumor growth” value in series [9] (10 mg/kg i.p., over the 25 days) is “about equivalent to that of control”. In addition, the tumor growth entry in series [9] (20 mg/kg i.p., over 25 days) is “significant decrease in tumor growth compared to 10 mg/kg and control”. Moreover, the “cell cycle arrest mechanism” value in series [1] was “G2/M arrest mechanism(s)”. Also, the “perturbation of the cell cycle of normal human cells” value in [2] (normal human fibroblasts) was “no significant perturbation”.
On to `COc1ccc2[nH]c3c(-c4ccnc5ccccc45)nccc3c2c1` [Compound 11, 6-Methoxy-1-quinolin-4-yl-9H-β-carboline], for which the negative logarithm of the IC50 (pIC50) in series [3] is 6.29; in the series on HCT116 P53 −/−, 6.34; in series [4] (Table 1), 6.25; in series [5] (MIA PaCa-2, Table 1) it was 6.31; in [6] (Table 1), 6.24.
Take `COc1cccc2c1C(=O)c1c(O)c3c(c(O)c1C2=O)C[C@@](O)(C(=O)CO)C[C@@H]3O[C@H]1C[C@H](N)[C@H](O)[C@H](C)O1` [Adriamycin]: the “cell cycle arrest mechanism” value in series [1] was “primarily G1 phase arrest”. For the same compound, the “selectivity between cancer cells and normal (fibroblast) cells” value in [2] is “did not show selectivity”.
In the case of `COc1ccc2c(c1)[nH]c1c(-c3ccnc4ccccc34)nccc12` [Compound 10, 7-Methoxy-1-quinolin-4-yl-9H-β-carboline], the pIC50 was 5.15 in series [3] and 4.73 with HCT116 P53 −/−.
For the compound `COc1ccc2[nH]c3c(-c4ccoc4)nccc3c2c1` [Compound 9, 1-Furan-3-yl-6-methoxy-9H-β-carboline], the negative logarithm of the IC50 (pIC50) in [3] is 4.22; in the series with HCT116 P53 −/−, 4.27; in series [4] (Table 1), 4.35.
With `COc1cccc2c1[nH]c1c(-c3cccc4ccccc34)nccc12` [Compound 39, 8-methoxy-1-(naphthalen-1-yl)-9H-pyrido[3,4-b]indole], the pIC50 in series [4] (Table 2) is 4.69; in series [5] (MIA PaCa-2, Table 2), 4.50; in series [6] (Table 2) it was 4.58; in series [10] it was under 5.00; in series [11] it was under 5.00.
For the compound `Clc1ccc2sc3c(-c4cccc5ccccc45)nccc3c2c1` [Compound 48, 6-Chloro-1-(naphthalen-1-yl)benzo[4,5]thieno[2,3-c]pyridine], the pIC50 in series [4] (Table 2) was 4.30; in series [5] (MIA PaCa-2, Table 2) it was 4.87; in series [6] (Table 2), under 4.30; in [10], 4.31; in [11] it was 5.22.

For the origin of these results see US8927570B2, “1-naphthyl-or 1-dihydroacenaphthenyl-pyrido[B]indoles and uses thereof in treating cancers” (priority 2009, dated 2015).
